Results reported in publication PMC10088252.
Read-outs that look alike come from different tables or passages of the source.

Description: Dose adjustment was allowed according to the severity of toxicity [Supplementary Table 1].
The primary endpoints were safety, ORR and DCR assessed by investigators. […] AEs referred to treatment-emergent adverse events (TEAEs) and TRAEs were assessed by investigators. Serious adverse events (SAEs) referred to AEs meeting at least one of the following criteria: event leading to death; life-threatening event; event requiring hospitalization or extension of hospital stay; event leading to persistent or evident disability or dysfunction; event leading to congenital malformation or birth defect or event which might lead to injury or that need medical treatment to avoid the above mentioned important medical events.

O=C(Nc1ccc(Oc2ccnc3c2CCN3)c(F)c1)c1c[nH]cc(-c2ccc(F)cc2)c1=O
TRAE Rash maculo-papular, any grade (600 mg QD (n=10)): 0 n (%) | TRAE Rash maculo-papular, grade 3-4 (600 mg QD (n=10)): 0 n (%) | TRAE Sinus tachycardia, any grade (600 mg QD (n=10)): 1 (10.0) n (%) | TRAE Sinus tachycardia, grade 3-4 (600 mg QD (n=10)): 0 n (%) | TRAE Skin fissures, any grade (600 mg QD (n=10)): 1 (10.0) n (%) | TRAE Skin fissures, grade 3-4 (600 mg QD (n=10)): 1 (10.0) n (%) | TRAE Supraventricular extrasystoles, any grade (600 mg QD (n=10)): 1 (10.0) n (%) | TRAE Supraventricular extrasystoles, grade 3-4 (600 mg QD (n=10)): 0 n (%) | TRAE Thrombocytopenia, any grade (600 mg QD (n=10)): 1 (10.0) n (%) | TRAE Thrombocytopenia, grade 3-4 (600 mg QD (n=10)): 1 (10.0) n (%) | TRAE Upper respiratory tract infection, any grade (600 mg QD (n=10)): 0 n (%) | TRAE Upper respiratory tract infection, grade 3-4 (600 mg QD (n=10)): 0 n (%) | TRAE Urinary retention, any grade (600 mg QD (n=10)): 1 (10.0) n (%) | TRAE Urinary retention, grade 3-4 (600 mg QD (n=10)): 0 n (%) | TRAE Urinary tract infection, any grade (600 mg QD (n=10)): 2 (20.0) n (%) | TRAE Urinary tract infection, grade 3-4 (600 mg QD (n=10)): 0 n (%) | TRAE Ventricular arrhythmia, any grade (600 mg QD (n=10)): 1 (10.0) n (%) | TRAE Ventricular arrhythmia, grade 3-4 (600 mg QD (n=10)): 0 n (%) | TRAE Ventricular extrasystoles, any grade (600 mg QD (n=10)): 0 n (%) | TRAE Ventricular extrasystoles, grade 3-4 (600 mg QD (n=10)): 0 n (%) | TRAE Vomiting, any grade (600 mg QD (n=10)): 0 n (%) | TRAE Vomiting, grade 3-4 (600 mg QD (n=10)): 0 n (%) | TRAE Weight loss, any grade (600 mg QD (n=10)): 1 (10.0) n (%) | TRAE Weight loss, grade 3-4 (600 mg QD (n=10)): 0 n (%) | SAEs, patients (Total (n=38)): 13.2% | TRAE Accessory nerve disorder, any grade (Total (n=38)): 1 (2.6) n (%) | TRAE Accessory nerve disorder, grade 3-4 (Total (n=38)): 0 n (%) | TRAE Activated partial thromboplastin time prolonged, any grade (Total (n=38)): 2 (5.3) n (%) | TRAE Activated partial thromboplastin time prolonged, grade 3-4 (Total (n=38)): 0 n (%) | TRAE Anaemia, any grade (Total (n=38)): 2 (5.3) n (%) | TRAE Anaemia, grade 3-4 (Total (n=38)): 1 (2.6) n (%) | TRAE Anaesthesia oral, any grade (Total (n=38)): 1 (2.6) n (%) | TRAE Anaesthesia oral, grade 3-4 (Total (n=38)): 0 n (%) | TRAE Arrhythmia, any grade (Total (n=38)): 1 (2.6) n (%) | TRAE Arrhythmia, grade 3-4 (Total (n=38)): 0 n (%) | TRAE Arthralgia, any grade (Total (n=38)): 1 (2.6) n (%) | TRAE Arthralgia, grade 3-4 (Total (n=38)): 0 n (%) | TRAE Asthenia, any grade (Total (n=38)): 5 (13.2) n (%) | TRAE Asthenia, grade 3-4 (Total (n=38)): 1 (2.6) n (%) | TRAE Blister, any grade (Total (n=38)): 1 (2.6) n (%) | TRAE Blister, grade 3-4 (Total (n=38)): 0 n (%) | TRAE Chest discomfort, any grade (Total (n=38)): 1 (2.6) n (%) | TRAE Chest discomfort, grade 3-4 (Total (n=38)): 0 n (%) | TRAE Chronic kidney disease, any grade (Total (n=38)): 1 (2.6) n (%) | TRAE Chronic kidney disease, grade 3-4 (Total (n=38)): 0 n (%) | TRAE Constipation, any grade (Total (n=38)): 8 (21.1) n (%) | TRAE Constipation, grade 3-4 (Total (n=38)): 0 n (%) | TRAE Cough, any grade (Total (n=38)): 1 (2.6) n (%) | TRAE Cough, grade 3-4 (Total (n=38)): 0 n (%) | TRAE Decreased Ccr, any grade (Total (n=38)): 6 (15.8) n (%) | TRAE Decreased Ccr, grade 3-4 (Total (n=38)): 0 n (%) | TRAE Decreased appetite, any grade (Total (n=38)): 5 (13.2) n (%) | TRAE Decreased appetite, grade 3-4 (Total (n=38)): 1 (2.6) n (%) | TRAE Diarrhoea, any grade (Total (n=38)): 3 (7.9) n (%) | TRAE Diarrhoea, grade 3-4 (Total (n=38)): 0 n (%) | TRAE Dizziness, any grade (Total (n=38)): 1 (2.6) n (%) | TRAE Dizziness, grade 3-4 (Total (n=38)): 0 n (%) | TRAE Dry mouth, any grade (Total (n=38)): 3 (7.9) n (%) | TRAE Dry mouth, grade 3-4 (Total (n=38)): 0 n (%) | TRAE Dysgeusia, any grade (Total (n=38)): 9 (23.7) n (%) | TRAE Dysgeusia, grade 3-4 (Total (n=38)): 1 (2.6) n (%) | TRAE Dyskinesia, any grade (Total (n=38)): 1 (2.6) n (%) | TRAE Dyskinesia, grade 3-4 (Total (n=38)): 1 (2.6) n (%) | TRAE Dysphonia, any grade (Total (n=38)): 1 (2.6) n (%) | TRAE Dysphonia, grade 3-4 (Total (n=38)): 0 n (%) | TRAE Dyspnoea, any grade (Total (n=38)): 1 (2.6) n (%) | TRAE Dyspnoea, grade 3-4 (Total (n=38)): 1 (2.6) n (%) | TRAE Electrocardiogram QT prolonged, any grade (Total (n=38)): 1 (2.6) n (%) | TRAE Electrocardiogram QT prolonged, grade 3-4 (Total (n=38)): 0 n (%) | TRAE Elevated ALT, any grade (Total (n=38)): 14 (36.8) n (%) | TRAE Elevated ALT, grade 3-4 (Total (n=38)): 0 n (%) | TRAE Elevated AST, any grade (Total (n=38)): 11 (28.9) n (%) | TRAE Elevated AST, grade 3-4 (Total (n=38)): 0 n (%) | TRAE Elevated D dimer, any grade (Total (n=38)): 1 (2.6) n (%) | TRAE Elevated D dimer, grade 3-4 (Total (n=38)): 0 n (%) | TRAE Elevated GGT, any grade (Total (n=38)): 1 (2.6) n (%) | TRAE Elevated GGT, grade 3-4 (Total (n=38)): 0 n (%) | TRAE Elevated LDH, any grade (Total (n=38)): 1 (2.6) n (%) | TRAE Elevated LDH, grade 3-4 (Total (n=38)): 0 n (%) | TRAE Elevated alpha-HBDH, any grade (Total (n=38)): 1 (2.6) n (%) | TRAE Elevated alpha-HBDH, grade 3-4 (Total (n=38)): 0 n (%) | TRAE Elevated bilirubin, any grade (Total (n=38)): 3 (7.9) n (%) | TRAE Elevated bilirubin, grade 3-4 (Total (n=38)): 0 n (%) | TRAE Elevated blood creatinine, any grade (Total (n=38)): 7 (18.4) n (%) | TRAE Elevated blood creatinine, grade 3-4 (Total (n=38)): 0 n (%) | TRAE Elevated creatine phosphokinase, any grade (Total (n=38)): 3 (7.9) n (%) | TRAE Elevated creatine phosphokinase, grade 3-4 (Total (n=38)): 0 n (%) | TRAE Elevated serum urea, any grade (Total (n=38)): 1 (2.6) n (%) | TRAE Elevated serum urea, grade 3-4 (Total (n=38)): 0 n (%) | TRAE Elevated troponin, any grade (Total (n=38)): 1 (2.6) n (%) | TRAE Elevated troponin, grade 3-4 (Total (n=38)): 0 n (%) | TRAE Genital rash, any grade (Total (n=38)): 1 (2.6) n (%) | TRAE Genital rash, grade 3-4 (Total (n=38)): 0 n (%) | TRAE Haematuria, any grade (Total (n=38)): 3 (7.9) n (%) | TRAE Haematuria, grade 3-4 (Total (n=38)): 0 n (%) | TRAE Headache, any grade (Total (n=38)): 1 (2.6) n (%) | TRAE Headache, grade 3-4 (Total (n=38)): 0 n (%) | TRAE Hyperhidrosis, any grade (Total (n=38)): 1 (2.6) n (%) | TRAE Hyperhidrosis, grade 3-4 (Total (n=38)): 0 n (%) | TRAE Hyperlipidaemia, any grade (Total (n=38)): 1 (2.6) n (%) | TRAE Hyperlipidaemia, grade 3-4 (Total (n=38)): 0 n (%) | TRAE Hypertension, any grade (Total (n=38)): 4 (10.5) n (%) | TRAE Hypertension, grade 3-4 (Total (n=38)): 1 (2.6) n (%) | TRAE Hypoaesthesia oral, any grade (Total (n=38)): 2 (5.3) n (%) | TRAE Hypoaesthesia oral, grade 3-4 (Total (n=38)): 0 n (%) | TRAE Hypocalcaemia, any grade (Total (n=38)): 1 (2.6) n (%) | TRAE Hypocalcaemia, grade 3-4 (Total (n=38)): 0 n (%) | TRAE Hypotension, any grade (Total (n=38)): 1 (2.6) n (%) | TRAE Hypotension, grade 3-4 (Total (n=38)): 0 n (%) | TRAE Insomnia, any grade (Total (n=38)): 1 (2.6) n (%) | TRAE Insomnia, grade 3-4 (Total (n=38)): 0 n (%) | TRAE Leukopenia, any grade (Total (n=38)): 3 (7.9) n (%) | TRAE Leukopenia, grade 3-4 (Total (n=38)): 0 n (%) | TRAE Nausea, any grade (Total (n=38)): 3 (7.9) n (%) | TRAE Nausea, grade 3-4 (Total (n=38)): 0 n (%) | TRAE Neuritis, any grade (Total (n=38)): 2 (5.3) n (%) | TRAE Neuritis, grade 3-4 (Total (n=38)): 0 n (%) | TRAE Occult blood, any grade (Total (n=38)): 2 (5.3) n (%) | TRAE Occult blood, grade 3-4 (Total (n=38)): 0 n (%) | TRAE Oedema peripheral, any grade (Total (n=38)): 2 (5.3) n (%) | TRAE Oedema peripheral, grade 3-4 (Total (n=38)): 0 n (%) | TRAE Onycholysis, any grade (Total (n=38)): 1 (2.6) n (%) | TRAE Onycholysis, grade 3-4 (Total (n=38)): 0 n (%) | TRAE Oropharyngeal pain, any grade (Total (n=38)): 1 (2.6) n (%) | TRAE Oropharyngeal pain, grade 3-4 (Total (n=38)): 1 (2.6) n (%) | TRAE PPE (Total (n=38)): 23.7% | TRAE PPE, any grade (Total (n=38)): 9 (23.7) n (%) | TRAE PPE, grade 3-4 (Total (n=38)): 4 (10.5) n (%) | TRAE Paraesthesia, any grade (Total (n=38)): 1 (2.6) n (%) | TRAE Paraesthesia, grade 3-4 (Total (n=38)): 0 n (%) | TRAE Proteinuria, any grade (Total (n=38)): 4 (10.5) n (%) | TRAE Proteinuria, grade 3-4 (Total (n=38)): 1 (2.6) n (%) | TRAE Pruritus, any grade (Total (n=38)): 1 (2.6) n (%) | TRAE Pruritus, grade 3-4 (Total (n=38)): 0 n (%) | TRAE Rash maculo-papular, any grade (Total (n=38)): 1 (2.6) n (%) | TRAE Rash maculo-papular, grade 3-4 (Total (n=38)): 0 n (%) | TRAE Sinus tachycardia, any grade (Total (n=38)): 1 (2.6) n (%) | TRAE Sinus tachycardia, grade 3-4 (Total (n=38)): 0 n (%) | TRAE Skin fissures, any grade (Total (n=38)): 1 (2.6) n (%) | TRAE Skin fissures, grade 3-4 (Total (n=38)): 1 (2.6) n (%) | TRAE Supraventricular extrasystoles, any grade (Total (n=38)): 1 (2.6) n (%) | TRAE Supraventricular extrasystoles, grade 3-4 (Total (n=38)): 0 n (%) | TRAE Thrombocytopenia, any grade (Total (n=38)): 3 (7.9) n (%) | TRAE Thrombocytopenia, grade 3-4 (Total (n=38)): 2 (5.3) n (%) | TRAE Upper respiratory tract infection, any grade (Total (n=38)): 1 (2.6) n (%) | TRAE Upper respiratory tract infection, grade 3-4 (Total (n=38)): 0 n (%) | TRAE Urinary retention, any grade (Total (n=38)): 1 (2.6) n (%) | TRAE Urinary retention, grade 3-4 (Total (n=38)): 0 n (%) | TRAE Urinary tract infection, any grade (Total (n=38)): 3 (7.9) n (%) | TRAE Urinary tract infection, grade 3-4 (Total (n=38)): 0 n (%) | TRAE Ventricular arrhythmia, any grade (Total (n=38)): 3 (7.9) n (%) | TRAE Ventricular arrhythmia, grade 3-4 (Total (n=38)): 0 n (%) | TRAE Ventricular extrasystoles, any grade (Total (n=38)): 1 (2.6) n (%) | TRAE Ventricular extrasystoles, grade 3-4 (Total (n=38)): 0 n (%) | TRAE Vomiting, any grade (Total (n=38)): 2 (5.3) n (%) | TRAE Vomiting, grade 3-4 (Total (n=38)): 0 n (%) | TRAE Weight loss, any grade (Total (n=38)): 1 (2.6) n (%) | TRAE Weight loss, grade 3-4 (Total (n=38)): 0 n (%) | TRAE constipation (Total (n=38)): 21.1% | TRAE dysgeusia (Total (n=38)): 23.7% | TRAE elevated ALT (Total (n=38)): 36.8% | TRAE elevated AST (Total (n=38)): 28.9% | grade ≥ 3 TEAEs, patients (Total (n=38)): 36.8% | grade ≥ 3 TRAE PPE (Total (n=38)): 10.5% | grade ≥ 3 TRAEs, patients (Total (n=38)): 28.9% | patients with at least one TEAE (Total (n=38)): All the 38 patients | treatment-related deaths (Total (n=38)): No treatment-related deaths occurred | TRAE leading to treatment discontinuation, patients (Total (n=38), grade 3 PPE in 400 mg BID cohort): 2.6% | treatment-related SAE, patients (Total (n=38), thrombocytopenia in 600 mg QD cohort): 2.6%
